This note sets out measurements from PubChem BioAssay (NCI).

Test systems include SK-MEL-5 melanoma; T-47D breast; SK-MEL-2 melanoma; UACC-257 melanoma; SK-OV-3 ovarian; HOP-92 NSCLC; SNB-19 CNS; UACC-62 melanoma; 786-0 renal; MOLT-4 leukemia; UO-31 renal; BT-549 breast; RPMI-8226 leukemia; HCT-15 colon; OVCAR-4 ovarian; SN12C renal; MDA-MB-231 breast; M14 melanoma; HOP-62 NSCLC.
Holding throughout (test): inhibition of tumour cell growth, NCI panel, 48 h

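Dose response: 5 concentrations. Exposure: 48 h. Format: 96-well plates. Endpoint: linear interpolation; highest concentration if not reached. The concentration for full growth arrest is given as TGI.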 Where only a bound is given, the exact number is not on record here.

For `CC1(c2cccc(C(F)(F)F)c2)CC(c2cccc(C(F)(F)F)c2)=C(C#N)C(=C(C#N)C#N)N1` (stereo not drawn), the TGI with SK-MEL-5 melanoma amounted to 29 µM; in the assay with T-47D breast, 41.7 µM; in the assay on SK-MEL-2 melanoma it was 41.1 µM; in the assay on UACC-257 melanoma, 31.7 µM; with SK-OV-3 ovarian, 29.6 µM; in the assay with HOP-92 NSCLC, 10.6 µM. The TGI with SNB-19 CNS turned out to be 40 µM; with UACC-62 melanoma, 31.3 µM; in the assay on 786-0 renal, 31.2 µM; in the assay with MOLT-4 leukemia, 38.5 µM; with UO-31 renal, 33.4 µM; with BT-549 breast, 40.9 µM. Besides, the TGI was found to be 47 µM in the assay on RPMI-8226 leukemia; 33.1 µM in the assay on HCT-15 colon; 30.8 µM in the assay with OVCAR-4 ovarian; 32.8 µM with SN12C renal; 40.7 µM in the assay on MDA-MB-231 breast; 37.4 µM with M14 melanoma. The TGI in the assay with HOP-62 NSCLC came out at 32.7 µM.

In the case of `COc1ccc2c(c1)C1Oc3ccccc3CC1CO2` (stereo not drawn), the TGI is greater than 100 µM in the assay on SK-MEL-5 melanoma; greater than 100 µM in the assay on T-47D breast; greater than 100 µM in the assay on SK-MEL-2 melanoma; greater than 100 µM with UACC-257 melanoma; greater than 100 µM with SK-OV-3 ovarian; 87 µM in the assay on HOP-92 NSCLC. For the same compound, the TGI with SNB-19 CNS is greater than 100 µM; with UACC-62 melanoma it was greater than 100 µM; in the assay with 786-0 renal, greater than 100 µM; in the assay with MOLT-4 leukemia, 52.9 µM; with UO-31 renal it was 75.8 µM; in the assay with BT-549 breast, greater than 100 µM. The TGI in the assay on RPMI-8226 leukemia is 65.4 µM; in the assay on HCT-15 colon it was greater than 100 µM; with OVCAR-4 ovarian it was greater than 100 µM; with SN12C renal, greater than 100 µM; in the assay with MDA-MB-231 breast, greater than 100 µM; with M14 melanoma it was greater than 100 µM. For the same compound, in the assay on HOP-62 NSCLC, the TGI is greater than 100 µM.

As for `COc1ccc(/C=N/n2c(Cc3ccccc3)n[nH]c2=O)c(OC)c1`, the TGI in the assay on SK-MEL-5 melanoma is greater than 100 µM; with T-47D breast, greater than 100 µM; with SK-MEL-2 melanoma it was greater than 100 µM; in the assay on UACC-257 melanoma, greater than 100 µM; in the assay with SK-OV-3 ovarian, greater than 60.7 µM; with HOP-92 NSCLC it was greater than 75 µM. Further, the TGI was greater than 77.5 µM with SNB-19 CNS; greater than 100 µM in the assay on UACC-62 melanoma; greater than 69 µM with 786-0 renal; greater than 100 µM in the assay with MOLT-4 leukemia; greater than 63.1 µM with UO-31 renal; greater than 49 µM in the assay on BT-549 breast. Further, the TGI in the assay with RPMI-8226 leukemia is greater than 100 µM; with HCT-15 colon, greater than 100 µM; with OVCAR-4 ovarian it was greater than 100 µM; in the assay with SN12C renal it was greater than 100 µM; in the assay with MDA-MB-231 breast, greater than 62.7 µM; in the assay on M14 melanoma it was greater than 100 µM. The TGI in the assay on HOP-62 NSCLC was greater than 59.8 µM.

For the compound `CCc1n[nH]c(=O)n1N`, the TGI in the assay on SK-MEL-5 melanoma, with T-47D breast, in the assay on SK-MEL-2 melanoma, with UACC-257 melanoma, with SK-OV-3 ovarian and in the assay on HOP-92 NSCLC was greater than 100 µM each time. Also, the TGI in the assay with SNB-19 CNS, with UACC-62 melanoma, in the assay on 786-0 renal, in the assay with MOLT-4 leukemia, with UO-31 renal and in the assay with BT-549 breast was greater than 100 µM each time. Besides, the TGI in the assay with RPMI-8226 leukemia, in the assay with HCT-15 colon, in the assay with OVCAR-4 ovarian, with SN12C renal, with MDA-MB-231 breast and with M14 melanoma was greater than 100 µM throughout. The compound also gave a TGI in the assay with HOP-62 NSCLC greater than 100 µM.

Consider `c1ccc([P+](Cc2ccc(C[P+](c3ccccc3)(c3ccccc3)c3ccccc3)s2)(c2ccccc2)c2ccccc2)cc1`, for which the TGI in the assay with SK-MEL-5 melanoma, with T-47D breast, in the assay on SK-MEL-2 melanoma, in the assay with UACC-257 melanoma, in the assay on SK-OV-3 ovarian and in the assay with HOP-92 NSCLC was greater than 100 µM each time. Besides, the TGI in the assay on SNB-19 CNS, with UACC-62 melanoma, with 786-0 renal, in the assay on MOLT-4 leukemia, in the assay with UO-31 renal and in the assay on BT-549 breast was greater than 100 µM throughout. Besides, the TGI in the assay on RPMI-8226 leukemia, with HCT-15 colon, in the assay on OVCAR-4 ovarian, in the assay with SN12C renal, in the assay on MDA-MB-231 breast and with M14 melanoma was greater than 100 µM in each case. In addition, the TGI in the assay with HOP-62 NSCLC is greater than 100 µM.

For the compound `CCc1cccc(CC)c1Nc1nc(-c2ccccc2-c2ccccc2)cs1`, the TGI in the assay on SK-MEL-5 melanoma, in the assay on T-47D breast, with SK-MEL-2 melanoma, in the assay on UACC-257 melanoma, in the assay on SK-OV-3 ovarian and with HOP-92 NSCLC was greater than 100 µM each time. The TGI with SNB-19 CNS was greater than 100 µM; with UACC-62 melanoma, greater than 100 µM; with 786-0 renal, greater than 100 µM; in the assay with MOLT-4 leukemia it was greater than 100 µM; with UO-31 renal, greater than 100 µM; in the assay on BT-549 breast it was 84.8 µM. In addition, the TGI in the assay on RPMI-8226 leukemia, in the assay on HCT-15 colon, in the assay with OVCAR-4 ovarian, with SN12C renal, in the assay with MDA-MB-231 breast and in the assay with M14 melanoma was greater than 100 µM throughout. Moreover, the TGI with HOP-62 NSCLC is greater than 100 µM.

Consider `CCOP(=O)(OCC)/C(C#N)=C/c1cccn1C`, for which the TGI with SK-MEL-5 melanoma, in the assay on T-47D breast, in the assay with SK-MEL-2 melanoma, in the assay on UACC-257 melanoma, in the assay with SK-OV-3 ovarian and in the assay with HOP-92 NSCLC was greater than 100 µM in each case. The TGI in the assay with SNB-19 CNS is greater than 100 µM; in the assay with UACC-62 melanoma it was greater than 100 µM; in the assay on 786-0 renal, greater than 100 µM; in the assay on MOLT-4 leukemia it was greater than 100 µM; in the assay with UO-31 renal, 99.5 µM; in the assay with BT-549 breast it was greater than 100 µM. Moreover, the TGI in the assay with RPMI-8226 leukemia, with HCT-15 colon, with OVCAR-4 ovarian, in the assay on SN12C renal, in the assay on MDA-MB-231 breast and with M14 melanoma was greater than 100 µM throughout. Moreover, the TGI in the assay on HOP-62 NSCLC is greater than 100 µM.
